Non-standard residues stand in square brackets, D forms with d. Residues, ends and D or L forms follow the SMILES beside them. pS = N[C@@H](COP(=O)(O)O)C(=O)O
What was measured:
[1] = target: T1, Pin1 WW domain (Uniprot: Q13526, Residues: 1–41) (Homo sapiens, UniProt Q13526); test: ITC titration of CPEB1 phosphopeptides with Pin1 WW domain; details: nano ITC calorimeter, 12 °C or 25 °C, 20 mM Tris-HCl pH 7.0, 130 mM NaCl, single binding site model, repeated at least twice
T1 construct: The Pin1 WW domain (Uniprot: Q13526, Residues: 1–41); His6 (N); GST (N); made in house
Text: (§1) Pin1 interacts with phosphorylated CPEB1 in Xenopus oocytes, as well as in mammalian cells. […] Therefore, to mimic the in vivo scenario, we measured the affinities of the interactions between recombinant proteins (the isolated WW domain and also the full-length protein) with several peptides containing the phosphorylation sites within CPEB1. These peptides were synthesized using Fmoc Solid-Phase Peptide Synthesis (SPPS) (Supplementary Fig 2). […] All affinities were found in the low μM range (Fig. 2a,b), with the exception of the pS423 site of CPEB1, located in the linker region between the RRM domains, whose affinity was considerably lower than the rest. Our results reveal that the peptides containing pS184 and pS210—the latter known to be essential for CPEB degradation—display the best affinities for Pin1 in vitro. The affinity of the phosphorylation-dependent interaction was about 10-fold higher than that of the unphosphorylated CPEB N-terminal counterparts. In addition, in most of the peptides examined, similar binding affinities and stoichiometries (1:1) were observed using either the full-length Pin1 protein or the truncated WW domain. Only when analyzing the interaction of CPEB1 pS210 and the full-length Pin1 protein we obtained a stoichiometry below 1 (n = 0.85), which cannot be attributed to systematic errors in the determination of the protein concentration. This discrepancy might indicate that in addition to the main complex consisting of a 1:1 protein/peptide ratio, a small population with a 1:2 stoichiometry is also present in solution.
ITC measurements were performed using a nano ITC calorimeter (TA Instruments) at 12 °C or 25 °C. Protein samples were prepared in 20 mM Tris-HCl pH 7.0 and 130 mM NaCl. All samples were degassed and centrifuged prior to the experiments. Protein concentration was measured in a NanoDrop™ 2000 measuring the UV absorption at 280 nm. Peptide concentration was determined by amino acid analysis. […]

Pin1 full-length = target: T2, Pin1 full-length (Homo sapiens, UniProt Q13526); test: ITC titration of CPEB1 phosphopeptides with Pin1 full-length; assay type: binding; details: for Kd: nano ITC calorimeter, 12 °C or 25 °C, 20 mM Tris-HCl pH 7.0, 130 mM NaCl, repeated at least twice, for pS210 one Pin1 molecule could interact with two peptides, read-out: Pin1 FL KD
T2 construct: The full-length Pin1 clone was obtained from Addgene; His6 (N); provided by Dustin Maly's Lab
Text: as §1
ITC measurements were performed using a nano ITC calorimeter (TA Instruments) at 12 °C or 25 °C. Protein samples were prepared in 20 mM Tris-HCl pH 7.0 and 130 mM NaCl. All samples were degassed and centrifuged prior to the experiments. Protein concentration was measured in a NanoDrop™ 2000 measuring the UV absorption at 280 nm. Peptide concentration was determined by amino acid analysis. Depending on the expected affinity, sigmoidal curves were optimized by injecting 10- to 15-fold concentrated peptide in 16 × 3 μL steps in a cell containing 190 μL of protein at an adjusted concentration of between 150 and 200 μM , stirring at 200 revolutions per minute (rpm). The delay between injections was set to be of 3 minutes. The NanoAnalyze software (TA Instruments) was used to determine the binding isotherms, assuming a single binding site in each molecule (except for the Pin1 full-length interaction with the CPEB1 pS210 peptide, where one Pin1 molecule could interact with two peptides). Baseline controls were acquired with buffer and pure peptide solutions. Measurements were repeated at least twice.

T2 sequence (Q13526 whole entry): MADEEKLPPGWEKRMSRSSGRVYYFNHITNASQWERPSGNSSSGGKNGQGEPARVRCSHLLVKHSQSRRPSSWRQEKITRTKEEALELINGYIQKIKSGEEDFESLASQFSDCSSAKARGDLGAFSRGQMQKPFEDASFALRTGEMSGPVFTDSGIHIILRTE
T1 sequence (Q13526 1-41): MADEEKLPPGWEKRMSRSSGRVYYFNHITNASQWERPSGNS

Compound	Kd [1]	Kd (Pin1 full-length)	stoichiometry (n), full-length Pin1 (Pin1 full-length; protein/peptide stoichiometry)
CSCC[C@H](NC(=O)[C@H](CO)NC(C)=O)C(=O)N[C@@H](CC(C)C)C(=O)N[C@@H](CC(N)=O)C(=O)N[C@@H](COP(=O)(O)O)C(=O)N1CCC[C@H]1C(=O)N[C@@H](CCSC)C(=O)NCC(=O)N[C@@H](CCCCN)C(N)=O [CPEB1 pS138] (Ac-SMLN[pS]PMGK-NH2; N-terminus assumed)	71.3 ± 9.3 µM	84.3 ± 10.6 µM	–
CC(=O)NCC(=O)N[C@@H](CCCCN)C(=O)N1CCC[C@H]1C(=O)N[C@@H](COP(=O)(O)O)C(=O)N1CCC[C@H]1C(=O)N[C@@H](CC(C)C)C(=O)NCC(=O)N[C@@H](Cc1ccccc1)C(=O)N[C@@H](CC(C)C)C(=O)N[C@H](C(N)=O)[C@@H](C)O [CPEB1 pS144] (Ac-GKP[pS]PLGFLT-NH2; N-terminus assumed)	75.4 ± 12.7 µM	83.5 ± 11.5 µM	–
CC[C@H](C)[C@H](NC(=O)[C@H](CCCNC(=N)N)NC(=O)[C@H](CC(C)C)NC(C)=O)C(=O)N[C@@H](COP(=O)(O)O)C(=O)N1CCC[C@H]1C(=O)N1CCC[C@H]1C(=O)N[C@@H](CC(C)C)C(=O)N[C@@H](Cc1c[nH]cn1)C(=O)N[C@@H](Cc1ccccc1)C(=O)N[C@@H](CC(C)C)C(=O)N1CCC[C@H]1C(=O)N[C@@H](CC(C)C)C(=O)NCC(=O)NCC(N)=O [CPEB1 pS210] (Ac-LRI[pS]PPLHFLPLGG-NH2; N-terminus assumed)	–	–	0.85
CC(=O)N[C@@H](C)C(=O)N[C@@H](C)C(=O)N[C@H](C(=O)N[C@H](C(=O)N[C@@H](COP(=O)(O)O)C(=O)N1CCC[C@H]1C(=O)N[C@@H](CC(C)C)C(=O)NCC(N)=O)C(C)C)[C@@H](C)O [CPEB1 pS248] (Ac-AATV[pS]PLG-NH2; N-terminus assumed)	47.6 ± 7.6 µM	42.4 ± 8.7 µM	–

Reference: article PMC4601027, “Structural Analysis of the Pin1-CPEB1 interaction and its potential role in CPEB1 degradation” (Scientific Reports, 2015)
